The values below come from patent US20200190081A1, “META SUBSTITUTED PHENYLPYRAZOLO- AND PHENYLPYRROLO- PYRIDAZINE DERIVATIVES HAVING MULTIMODAL ACTIVITY AGAINST PAIN” (ESTEVE PHARMACEUTICALS, S.A., priority 2016, published 2020).

Each structure is given as a SMILES string.

Usually Ki stands for the equilibrium dissociation constant of an inhibitor or competing ligand from its target.

Experiment [1] has as its target Human norepinephrine transporter (NET) (Homo sapiens, UniProt P23975). As to the kind of experiment: Binding assay to human norepinephrine transporter (NET), [3H]-Nisoxetin. The settings on record: human NET enriched membranes, 5 nM [3H]-Nisoxetin. How it is done: Binding Assay to Human Norepinephrine Transporter (NET).
Human norepinephrine transporter (NET) enriched membranes (5 μg) were incubated with 5 nM of radiolabeled [3H]-Nisoxetin in assay buffer containing 50 mM Tris-HCl, 120 mM NaCl, 5 mM KCl, pH 7.4. NSB (non specific binding) was measured by adding 10 μM of desipramine. The binding of the test compound was measured at five different concentrations. After 60 min incubation at 4° C., binding reaction was terminated by filtering through Multiscreen GF/C (Millipore) presoaked in 0.5% polyethyleneimine in Vacuum Manifold Station, followed by 3 washes with ice-cold filtration buffer containing 50 mM Tris-HCl, 0.9% NaCl, pH 7.4. Filter plates were dried at 60° C. for 1 hour and 30 μl of scintillation cocktail were added to each well before radioactivity reading. Readings were performed in a Trilux 1450 Microbeta radioactive counter (Perkin Elmer).

Experiment [2] has as its target Human α2δ-1 Subunit of Cav2.2 Calcium Channel (Homo sapiens, UniProt P54289). The experiment is described as follows: Human α2δ-1 subunit of Cav2.2 calcium channel assay, [3H]-Gabapentin binding. The settings on record: human α2δ-1 enriched membranes, 15 nM [3H]-Gabapentin. As for the experimental part:
Human α2δ-1 Subunit of Cav2.2 Calcium Channel Assay
Human α2δ-1 enriched membranes (2.5 μg) were incubated with 15 nM of radiolabeled [3H]-Gabapentin in assay buffer containing Hepes-KOH 10 mM, pH 7.4. NSB (non specific binding) was measured by adding 10 μM pregabalin. The binding of the test compound was measured at five different concentrations. After 60 min incubation at 27° C., binding reaction was terminated by filtering through Multiscreen GF/C (Millipore) presoaked in 0.5% polyethyleneimine in Vacuum Manifold Station, followed by 3 washes with ice-cold filtration buffer containing 50 mM Tris-HCl, pH 7.4. Filter plates were dried at 60° C. for 1 hour and 30 μl of scintillation cocktail were added to each well before radioactivity reading. Readings were performed in a Trilux 1450 Microbeta radioactive counter (Perkin Elmer).

Chain of Human norepinephrine transporter (NET) (P23975 whole entry): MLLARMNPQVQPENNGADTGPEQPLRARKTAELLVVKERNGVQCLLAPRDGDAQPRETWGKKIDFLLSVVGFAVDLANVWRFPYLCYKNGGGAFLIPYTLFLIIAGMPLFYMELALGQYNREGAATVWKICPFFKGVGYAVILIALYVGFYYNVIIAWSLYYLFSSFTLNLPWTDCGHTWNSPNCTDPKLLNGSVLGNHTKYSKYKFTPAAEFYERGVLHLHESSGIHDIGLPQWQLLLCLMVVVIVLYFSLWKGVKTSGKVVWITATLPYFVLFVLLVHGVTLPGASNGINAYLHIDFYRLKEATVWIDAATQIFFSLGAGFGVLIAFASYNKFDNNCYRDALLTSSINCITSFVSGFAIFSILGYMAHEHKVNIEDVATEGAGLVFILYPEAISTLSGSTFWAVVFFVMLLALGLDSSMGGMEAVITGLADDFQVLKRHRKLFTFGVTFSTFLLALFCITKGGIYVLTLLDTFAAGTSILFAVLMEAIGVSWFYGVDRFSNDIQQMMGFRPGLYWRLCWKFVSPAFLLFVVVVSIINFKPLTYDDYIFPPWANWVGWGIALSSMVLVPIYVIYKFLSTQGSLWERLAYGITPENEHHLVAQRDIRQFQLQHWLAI
Chain of Human α2δ-1 Subunit of Cav2.2 Calcium Channel (P54289 25-1103): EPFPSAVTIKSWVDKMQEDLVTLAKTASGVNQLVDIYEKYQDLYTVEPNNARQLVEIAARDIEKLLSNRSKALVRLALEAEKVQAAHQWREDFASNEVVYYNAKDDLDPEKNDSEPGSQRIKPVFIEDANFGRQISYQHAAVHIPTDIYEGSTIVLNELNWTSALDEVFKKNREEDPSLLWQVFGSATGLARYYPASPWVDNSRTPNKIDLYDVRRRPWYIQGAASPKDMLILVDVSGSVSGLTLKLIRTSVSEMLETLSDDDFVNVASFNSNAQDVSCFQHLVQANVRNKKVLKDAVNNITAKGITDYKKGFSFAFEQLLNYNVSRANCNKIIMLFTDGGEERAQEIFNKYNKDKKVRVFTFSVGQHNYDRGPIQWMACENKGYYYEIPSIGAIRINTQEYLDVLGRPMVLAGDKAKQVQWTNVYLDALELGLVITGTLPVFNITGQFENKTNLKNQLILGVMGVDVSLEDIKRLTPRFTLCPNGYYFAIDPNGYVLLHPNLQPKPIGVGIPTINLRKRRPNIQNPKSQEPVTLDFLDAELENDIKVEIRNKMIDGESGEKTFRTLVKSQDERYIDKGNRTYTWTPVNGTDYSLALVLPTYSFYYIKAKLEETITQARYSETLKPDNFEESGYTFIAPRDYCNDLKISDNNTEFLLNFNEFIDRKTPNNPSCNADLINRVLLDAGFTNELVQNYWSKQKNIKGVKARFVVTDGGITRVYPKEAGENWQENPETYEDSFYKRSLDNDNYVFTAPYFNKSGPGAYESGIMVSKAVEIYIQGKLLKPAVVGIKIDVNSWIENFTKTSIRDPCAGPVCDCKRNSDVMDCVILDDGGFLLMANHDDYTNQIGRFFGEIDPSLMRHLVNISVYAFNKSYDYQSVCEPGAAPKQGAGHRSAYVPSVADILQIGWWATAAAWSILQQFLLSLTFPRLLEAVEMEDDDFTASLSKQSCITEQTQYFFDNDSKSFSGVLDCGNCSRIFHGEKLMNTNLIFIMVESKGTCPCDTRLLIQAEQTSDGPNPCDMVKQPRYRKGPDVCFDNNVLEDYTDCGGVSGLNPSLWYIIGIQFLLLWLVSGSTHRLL

In the case of `CNCCC(Cc1ccccc1)Oc1cccc(-n2nc3c(N(C)C)nnc(C)c3c2C)c1` (stereo not shown) [Example 38, N,N,3,4-tetramethyl-2-(3-((4-(methylamino)-1-phenylbutan-2-yl)oxy)phenyl)-2H-pyrazolo[3,4-d]pyridazin-7-amine], the figures for the Ki in experiment [1] and in experiment [2] were 100 to 500 nM and 500 to 5000 nM, respectively.
In the case of `CNCCC(Oc1cccc(-n2nc3c(N(C)C)nnc(C)c3c2C)c1)c1ccccc1F` (stereo not shown) [Example 30, 2-(3-(1-(2-Fluorophenyl)-3-(methylamino)propoxy)phenyl)-N,N,3,4-tetramethyl-2H-pyrazolo[3,4-d]pyridazin-7-amine], the Ki is less than 100 nM in experiment [1] and 500 to 5000 nM in experiment [2].
The matching figures for `CNC[C@H](Oc1cccc(-n2nc3c(N(C)C)nnc(C)c3c2C)c1)c1ccccc1` [Example 60, (R)-N,N,3,4-Tetramethyl-2-(3-(2-(methylamino)-1-phenylethoxy)phenyl)-2H-pyrazolo[3,4-d]pyridazin-7-amine]: 100 to 500 nM and 500 to 5000 nM.
The matching figures for `CNCCC(Oc1cccc(-n2nc3c(N(C)C)nnc(C)c3c2C)c1)c1ccccc1OC` (stereo not shown) [Example 36, 2-(3-(1-(2-methoxyphenyl)-3-(methylamino)propoxy)phenyl)-N,N,3,4-tetramethyl-2H-pyrazolo[3,4-d]pyridazin-7-amine]: 100 to 500 nM and 500 to 5000 nM.
For `Cc1nnc(N(C)C)c2nn(-c3cccc(OC(Cc4ccccc4)CN(C)Cc4ccccc4)c3)c(C)c12` (stereo not shown) [Example 44, 2-(3-((1-(benzyl(methyl)amino)-3-phenylpropan-2-yl)oxy)phenyl)-N,N,3,4-tetramethyl-2H-pyrazolo[3,4-d]pyridazin-7-amine] the same measures were not below 1000 nM and not below 5000 nM.
Consider `CCNCCC(Oc1cccc(-n2nc3c(N(C)C)nnc(C)c3c2C)c1)c1cccc(F)c1` (stereo not shown) [Example 17, 2-(3-(3-(ethylamino)-1-(3-fluorophenyl)propoxy)phenyl)-N,N,3,4-tetramethyl-2H-pyrazolo[3,4-d]pyridazin-7-amine], for which the Ki in experiment [1] is not below 1000 nM; in experiment [2], 500 to 5000 nM.
Consider `CNCCCC(Oc1cccc(-n2nc3c(N(C)C)nnc(C)c3c2C)c1)c1ccccc1` (stereo not shown) [Example 6, N,N,3,4-tetramethyl-2-(3-(4-(methylamino)-1-phenylbutoxy)phenyl)-2H-pyrazolo[3,4-d]pyridazin-7-amine], for which the Ki lay within 100 to 500 nM in experiment [1] and 500 to 5000 nM in experiment [2].
The matching figures for `Cc1nnc(N(C)C)c2nn(-c3cccc(OC(CCN)c4ccc(F)cc4)c3)c(C)c12` (stereo not shown) [Example 20, 2-(3-(3-amino-1-(4-fluorophenyl)propoxy)phenyl)-N,N,3,4-tetramethyl-2H-pyrazolo[3,4-d]pyridazin-7-amine]: 100 to 500 nM and 500 to 5000 nM.
For `Cc1nnc(N(C)C)c2nn(-c3cccc(OC(CCN)c4cccc(F)c4)c3)c(C)c12` (stereo not shown) [Example 21, 2-(3-(3-amino-1-(3-fluorophenyl)propoxy)phenyl)-N,N,3,4-tetramethyl-2H-pyrazolo[3,4-d]pyridazin-7-amine] the same measures were 100 to 500 nM and 500 to 5000 nM.
The matching figures for `Cc1nnc(N(C)C)c2nn(-c3cccc(O[C@H](c4ccccc4)[C@@H]4CNCCO4)c3)c(C)c12` (racemic) [Example 12, N,N,3,4-tetramethyl-2-(3-((R)-((S)-morpholin-2-yl)(phenyl)methoxy)phenyl)-2H-pyrazolo[3,4-d]pyridazin-7-amine]: 100 to 500 nM and 500 to 5000 nM.
Regarding `Cc1nnc(N(C)C)c2nn(-c3cccc(OC(CCN)c4cccnc4)c3)c(C)c12` (stereo not shown) [Example 50, 2-(3-(3-amino-1-(pyridin-3-yl)propoxy)phenyl)-N,N,3,4-tetramethyl-2H-pyrazolo[3,4-d]pyridazin-7-amine], the Ki is not below 1000 nM in experiment [1] and 500 to 5000 nM in experiment [2].
The matching figures for `CNCCC(Oc1cccc(-n2nc3c(N(C)C)nnc(C)c3c2C)c1)c1ccc(F)cc1` (stereo not shown) [Example 8, 2-(3-(1-(4-fluorophenyl)-3-(methylamino)propoxy)phenyl)-N,N,3,4-tetramethyl-2H-pyrazolo[3,4-d]pyridazin-7-amine]: less than 100 nM and 500 to 5000 nM.
Regarding `CCNCCC(Oc1cccc(-n2nc3c(N(C)C)nnc(C)c3c2C)c1)c1ccccc1` (stereo not shown) [Example 3, 2-(3-(3-(ethylamino)-1-phenylpropoxy)phenyl)-N,N,3,4-tetramethyl-2H-pyrazolo[3,4-d]pyridazin-7-amine], the values for the Ki in experiment [1] and in experiment [2] were 100 to 500 nM and 500 to 5000 nM, respectively.
The matching figures for `CNCCC(Oc1cccc(-n2nc3c(N)nnc(C)c3c2C)c1)c1ccccc1` (stereo not shown) [Example 27, 3,4-dimethyl-2-(3-(3-(methylamino)-1-phenylpropoxy)phenyl)-2H-pyrazolo[3,4-d]pyridazin-7-amine]: less than 100 nM and 500 to 5000 nM.
For `Cc1nnc(N(C)C)c2nn(-c3cccc(OC(CCN)c4ccccc4F)c3)c(C)c12` (stereo not shown) [Example 19, 2-(3-(3-amino-1-(2-fluorophenyl)propoxy)phenyl)-N,N,3,4-tetramethyl-2H-pyrazolo[3,4-d]pyridazin-7-amine] the same measures were 100 to 500 nM and 500 to 5000 nM.
The matching figures for `CNCCC(Oc1cccc(-n2nc3c(N(C)C)nnc(C)c3c2C)c1)c1cccc(C#N)c1` (stereo not shown) [Example 11, 3-(1-(3-(7-(dimethylamino)-3,4-dimethyl-2H-pyrazolo[3,4-d]pyridazin-2-yl)phenoxy)-3-(methylamino)propyl)benzonitrile]: less than 100 nM and 500 to 5000 nM.
On to `Cc1nnc(N(C)C)c2nn(-c3cccc(OCC4CCN(CCc5ccccc5)CC4)c3)c(C)c12` [Example 53, N,N,3,4-Tetramethyl-2-(3-((1-phenethylpiperidin-4-yl)methoxy)phenyl)-2H-pyrazolo[3,4-d]pyridazin-7-amine], for which the results for the Ki in experiment [1] and in experiment [2] were 100 to 500 nM and 500 to 5000 nM, respectively.
For `Cc1nnc(N(C)C)c2nn(-c3cccc(OC(CCN)c4ccccc4)c3)c(C)c12` (stereo not shown) [Example 4, 2-(3-(3-amino-1-phenylpropoxy)phenyl)-N,N,3,4-tetramethyl-2H-pyrazolo[3,4-d]pyridazin-7-amine] the same measures were 100 to 500 nM and 500 to 5000 nM.
Consider `CNCC[C@H](Oc1cccc(-n2nc3c(N(C)C)nnc(C)c3c2C)c1)c1ccccc1` [Example 58, (S)-N,N,3,4-Tetramethyl-2-(3-(3-(methylamino)-1-phenylpropoxy)phenyl)-2H-pyrazolo[3,4-d]pyridazin-7-amine], for which the Ki in experiment [1] is less than 100 nM; in experiment [2] it was 500 to 5000 nM.
The matching figures for `CNCCC(Oc1cccc(-n2nc3c(N(C)C)nnc(C)c3c2C)c1)c1ccncc1` (stereo not shown) [Example 10, N,N,3,4-tetramethyl-2-(3-(3-(methylamino)-1-(pyridin-4-yl)propoxy)phenyl)-2H-pyrazolo[3,4-d]pyridazin-7-amine]: less than 100 nM and 500 to 5000 nM.
The matching figures for `CNCCC(Oc1cccc(-n2nc3c(N(C)C)nnc(C)c3c2C)c1)c1ccc(C#N)cc1` (stereo not shown) [Example 7, 4-(1-(3-(7-(dimethylamino)-3,4-dimethyl-2H-pyrazolo[3,4-d]pyridazin-2-yl)phenoxy)-3-(methylamino)propyl)benzonitrile]: 100 to 500 nM and 500 to 5000 nM.
With `CNCC[C@@H](Oc1cccc(-n2nc3c(N(C)C)nnc(C)c3c2C)c1)c1ccccc1F` [Example 62, (R)-2-(3-(1-(2-Fluorophenyl)-3-(methylamino)propoxy)phenyl)-N,N,3,4-tetramethyl-2H-pyrazolo[3,4-d]pyridazin-7-amine], the results for the Ki in experiment [1] and in experiment [2] were less than 100 nM and 500 to 5000 nM, respectively.
The matching figures for `CNCCC(Oc1cccc(-n2c(C)c3c(C)nnc(C)c3c2C)c1)c1ccccc1F` (stereo not shown) [Example 66, 3-(2-fluorophenyl)-N-methyl-3-(3-(1,4,5,7-tetramethyl-6H-pyrrolo[3,4-d]pyridazin-6-yl)phenoxy)propan-1-amine]: 500 to 1000 nM and 500 to 5000 nM.
For `Cc1nnc(N(C)C)c2nn(-c3cccc(OC4CNCc5ccccc54)c3)c(C)c12` (stereo not shown) [Example 16, N,N,3,4-tetramethyl-2-(3-((1,2,3,4-tetrahydroisoquinolin-4-yl)oxy)phenyl)-2H-pyrazolo[3,4-d]pyridazin-7-amine] the same measures were not below 1000 nM and 500 to 5000 nM.
With `CNCC[C@@H](Oc1cccc(-n2nc3c(N(C)C)nnc(C)c3c2C)c1)c1ccccc1` [Example 59, (R)-N,N,3,4-tetramethyl-2-(3-(3-(methylamino)-1-phenylpropoxy)phenyl)-2H-pyrazolo[3,4-d]pyridazin-7-amine], the Ki was 100 to 500 nM in experiment [1] and 500 to 5000 nM in experiment [2].
With `Cc1nnc(N(C)C)c2nn(-c3cccc(OC(CCNCCF)c4ccccc4)c3)c(C)c12` (stereo not shown) [Example 54, 2-(3-(3-((2-fluoroethyl)amino)-1-phenylpropoxy)phenyl)-N,N,3,4-tetramethyl-2H-pyrazolo[3,4-d]pyridazin-7-amine], the Ki in experiment [1] was in the range of 100 to 500 nM; in experiment [2], 500 to 5000 nM.
